Molecular target: Human opiate κ receptors (Homo sapiens, UniProt P41145)
Assay: κ opioid receptor functional assay, [35S]GTPγS binding (assay C)
Assay type: biochemical
Settings: for activation at 1 µM: 0.5 h, read-out: % activation functional assay at 1 μM

Chain of Human opiate κ receptors (P41145 whole entry): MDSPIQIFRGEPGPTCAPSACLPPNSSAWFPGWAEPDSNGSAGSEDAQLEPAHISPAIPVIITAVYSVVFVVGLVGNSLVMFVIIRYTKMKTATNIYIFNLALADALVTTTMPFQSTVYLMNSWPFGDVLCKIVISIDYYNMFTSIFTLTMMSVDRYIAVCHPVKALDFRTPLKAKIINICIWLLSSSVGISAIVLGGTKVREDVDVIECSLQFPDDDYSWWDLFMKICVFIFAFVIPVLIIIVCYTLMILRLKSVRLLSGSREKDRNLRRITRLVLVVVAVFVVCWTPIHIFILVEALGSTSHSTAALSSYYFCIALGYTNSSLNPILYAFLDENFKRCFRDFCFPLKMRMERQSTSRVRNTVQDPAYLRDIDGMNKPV

Compound `COC(=O)N1CCN(C(=O)Cc2ccc(Cl)s2)C2C(N3CCCC3)CCCC21` (racemic) [Example 8] has an activation at 1 µM of 97% and an EC50 (GTPγS EC50 (nM)) of 10 to 100 nM.

With `O=C(Cc1ccc(Cl)c(Cl)c1)N1CCN(Cc2cnc[nH]2)C2CCCC(N3CCCC3)C21` (racemic) [Example 49] the “activation (% of control) at 1 μM” value was 112 % of control, the activation at 1 µM was 112% and the EC50 (EC50 (nM) [35S]GTPγS binding) was 6.65 nM. It also gave an EC50 (GTPγS EC50 (nM)) of under 10 nM.

`COC(=O)N1CCN(C(=O)Cc2ccc(F)c(Cl)c2)[C@@H]2[C@@H](N3CCCC3)CCC[C@@H]21` [Example 92] showed an activation at 1 µM of 105% and an EC50 (GTPγS EC50 (nM)) of 10 to 100 nM.

`COC(=O)c1cccc(C(=O)N2CCN(C(=O)Cc3ccc(Cl)c(Cl)c3)C3C(N4CCCC4)CCCC32)c1` (racemic) [Example 86] gave an activation at 1 µM of 86%.

In the case of `O=C(c1ccccc1)N1CCN(C(=O)Cc2ccc(Cl)c(Cl)c2)C2C(N3CCCC3)CCCC21` (stereo not drawn) [L, reference compound], the “activation (% of control) at 1 μM” value is reported as 74 % of control.

For `CN(C)C(=O)N1CCN(C(=O)Cc2ccc(Cl)c(Cl)c2)C2C(N3CCCC3)CCCC21` (racemic) [Example 34], the activation at 1 µM was 107% and the EC50 (GTPγS EC50 (nM)) was 10 to 100 nM.

For `COC(=O)N1CCN(C(=O)Cc2ccc(C(F)(F)F)c(F)c2)[C@@H]2[C@@H](N3CC[C@H](O)C3)CCC[C@@H]21` [Example 141], the activation at 1 µM was 99% and the EC50 (GTPγS EC50 (nM)) was under 10 nM.

`COC(=O)N1CCN(C(=O)Cc2ccc(F)c(Cl)c2)[C@@H]2[C@@H](N3CC[C@H](O)C3)CCC[C@@H]21` [Example 109] showed an activation at 1 µM of 110% and an EC50 (GTPγS EC50 (nM)) of under 10 nM.

`COC(=O)N1CCN(C(=O)Cc2ccc(Cl)c(Cl)c2)[C@@H]2[C@@H](N3CCCC3)CCC[C@@H]21` (racemic) [Example 1] was tested, and the “activation (% of control) at 1 μM” value was 109 % of control and the activation at 1 µM was 109%.

For `O=C(Cc1ccc(Cl)c(Cl)c1)N1CCN(C(=O)OCc2ccccc2)[C@H]2CCC[C@H](N3CCCC3)[C@H]21` (racemic) [Example 16], the activation at 1 µM was 102% and the EC50 (GTPγS EC50 (nM)) was under 10 nM.

`COC(=O)N1CCN(C(=O)Cc2ccc(C(F)(F)F)c(Cl)c2)[C@@H]2[C@@H](N3CC[C@@H](O)C3)CCC[C@@H]21` [Example 113] gave an activation at 1 µM of 102% and an EC50 (GTPγS EC50 (nM)) of under 10 nM.

`COC(=O)N1CCN(C(=O)Cc2ccc(Cl)c(Cl)c2)[C@@H]2[C@@H](N3CC[C@H](O)C3)CCC[C@@H]21` [Example 97] gave an activation at 1 µM of 113% and an EC50 (GTPγS EC50 (nM)) of under 10 nM.

`O=C(N1CCCC1)N1CCN(C(=O)Cc2ccc(Cl)c(Cl)c2)C2C(N3CCCC3)CCCC21` (racemic) [Example 38] gave an activation at 1 µM of 109% and an EC50 (GTPγS EC50 (nM)) of 10 to 100 nM.

`COC(=O)CNC(=O)N1CCN(C(=O)Cc2ccc(Cl)c(Cl)c2)C2C(N3CCCC3)CCCC21` (racemic) [Example 75] gave an activation at 1 µM of 113% and an EC50 (GTPγS EC50 (nM)) of under 10 nM.

For `COC(=O)COC(=O)N1CCN(C(=O)Cc2ccc(Cl)c(Cl)c2)[C@@H]2[C@@H](N3CC[C@H](O)C3)CCC[C@@H]21` [Example 106], the activation at 1 µM was 92% and the EC50 (GTPγS EC50 (nM)) was under 10 nM.

With `O=C(O)CC(=O)N1CCN(C(=O)Cc2ccc(Cl)c(Cl)c2)C2C(N3CCCC3)CCCC21` (racemic) [Example 37] the “activation (% of control) at 1 μM” value was 87 % of control, the activation at 1 µM was 87% and the EC50 (EC50 kappa opioid receptor activation) was 22 nM. For the same compound, the EC50 (GTPγS EC50 (nM)) was 10 to 100 nM.

Work on `CNC(=O)N1CCN(C(=O)Cc2ccc(Cl)c(Cl)c2)C2C(N3CCCC3)CCCC21` (racemic) [Example 62] yielded an activation at 1 µM of 104% and an EC50 (GTPγS EC50 (nM)) of 10 to 100 nM.

Compound `O=C(C1CCCN1)N1CCN(C(=O)Cc2ccc(Cl)c(Cl)c2)C2C(N3CCCC3)CCCC21` (racemic) [Example 80] has an activation at 1 µM of 76% and an EC50 (GTPγS EC50 (nM)) of 100 to 1000 nM.

`COC(=O)N1CCN(C(=O)Cc2ccc(Cl)c(Cl)c2)[C@@H]2[C@H]1CCC[C@@H]2N1CCCC1` (racemic) [Reference compound E, reference compound] gave an activation at 1 µM of 68%.

In the case of `O=C(C1CCC1)N1CCN(C(=O)Cc2ccc(Cl)c(Cl)c2)C2C(N3CCCC3)CCCC21` (racemic) [Example 27], the activation at 1 µM is reported as 103% and the EC50 (GTPγS EC50 (nM)) is reported as under 10 nM.

In the case of `COC(=O)N1CCN(C(=O)Cc2cccc(C(F)(F)F)c2)[C@@H]2[C@@H](N3CC[C@H](O)C3)CCC[C@@H]21` [Example 142], the activation at 1 µM is reported as 106% and the EC50 (GTPγS EC50 (nM)) is reported as 10 to 100 nM.

With `O=C(O)CC(=O)N1CCN(C(=O)Cc2ccc(Cl)c(Cl)c2)C2C(N3CCC(O)C3)CCCC21` (mixture of isomers) [T, reference compound] the “activation (% of control) at 1 μM” value was 11 % of control, the “activation of the kappa opioid receptors at 1 μM” value was “no or little activation” and the EC50 (EC50 (nM) [35S]GTPγS binding) was over 1000 nM.

`O=C(c1ncccn1)N1CCN(C(=O)Cc2ccc(Cl)c(Cl)c2)C2C(N3CCCC3)CCCC21` (racemic) [Example 82] was tested, and the activation at 1 µM was 97%.

`O=C(C1CC1)N1CCN(C(=O)Cc2ccc(Cl)c(Cl)c2)C2C(N3CCCC3)CCCC21` (racemic) [Example 28] showed an activation at 1 µM of 111% and an EC50 (GTPγS EC50 (nM)) of under 10 nM.

Compound `O=C(O)CNC(=O)N1CCN(C(=O)Cc2ccc(Cl)c(Cl)c2)C2C(N3CCCC3)CCCC21` (racemic) [Example 77] has an activation at 1 µM of 98% and an EC50 (GTPγS EC50 (nM)) of 10 to 100 nM.

Source: patent publication US20160122307A1, “PERHYDROQUINOXALINE DERIVATIVES” (DR. AUGUST WOLFF GMBH & CO. KG ARZNEIMITTEL, priority 2013, published 2016)
